The source of these data is patent US6761885B1, “Strain of Lactobacillus plantarum and uses thereof” (SCA Hygiene Products AB, priority 1998, dated 2004).

The subject of experiment [1] is LB931. Description: Sensitivity to antibiotic substances by the SIR system. The experiment is classed as cell-based, Lactobacillus plantarum. Set-up: key to Indication: S means sensitive; R strands for resistant. The conditions noted are these: for Indication / Zone: SIR system. Here is the method: The sensitivity to antibiotic substances was also determined using the SIR system. In table VI below S means sensitive and R strands for resistant.

The test system of experiment [2] is Lactobacillus plantarum LB931. The experiment can be described thus: MIC of antibiotics by E-test. The experiment is classed as cell-based. The method, then: MIC values of Lactobacillus plantarum LB931 were determined using E-test (Brown et al. J Antimicrob Chemother 1991;27:185-190).
The subject of experiment [3] is LB931. The experiment can be described thus: MIC test for the spermacidal agent Tergitol NP-9. The format is cell-based, Lactobacillus plantarum. The settings on record: for Cfu/ml LB931: 18 h, 37 °C, inoculated 1.0×10^7 cfu. The method, then:
MIC tests were also carried out for the spermacidal agent Tergitol. LB931 was grown on MRS agar in 5% CO2, 37° C. for 48 h. The bacteria were inoculated in 3 ml MRS broth and incubated for 10 h under the same conditions as previously 1.5% of the culture was reinoculated to 3 ml MRS broth and was incubated under the same conditions for 18 h. NP-9 Tergitol (Sigma, US) Lot 47F0002 was diluted in MRS broth having a temperature of 37° C. (reduced viscosity) to a stock solution of 40%. […] 10 μl bacterial culture was added to each solution. The blank solution was mixed and added to MRS agar plates. The plates were grown in 5% CO2, 37° C. for 48 h for determining the cell density. The rest of the solutions were incubated without mixing in 5% CO2, 37° C. for 18 h. The solution containing 30% and 40% NP-9 were diluted in 37 ° C. MRS broth (reduced viscosity). All solutions were vigorously mixed; diluted in sterile 0.9% NaCl and added to MRS agar plates The plates were incubated in 5% CO2, 37° C. for 48 h for determining cfu/ml.
Inoculated amount of LB931 was 1.0×10^7 .cfu

Where [4] appears, read: Lactiplantibacillus plantarum, LB931, E-test, read-out: MIC.

Read-outs that look alike come from different tables or passages of the source. Bounds are passed on as bounds.

Consider `NCC[C@H](O)C(=O)N[C@@H]1C[C@H](N)[C@@H](O[C@H]2O[C@H](CN)[C@@H](O)[C@H](O)[C@H]2O)[C@H](O)[C@H]1O[C@H]1O[C@H](CO)[C@@H](O)[C@H](N)[C@H]1O` [Amikacin], for which, in experiment [1], the Indication result is reported as “S” and the Zone came to 30 mm.
For `CN[C@H](CC(C)C)C(=O)N[C@H]1C(=O)N[C@@H](CC(N)=O)C(=O)N[C@H]2C(=O)N[C@H]3C(=O)N[C@H](C(=O)N[C@H](C(=O)O)c4cc(O)cc(O)c4-c4cc3ccc4O)[C@H](O)c3ccc(c(Cl)c3)Oc3cc2cc(c3O[C@@H]2O[C@H](CO)[C@@H](O)[C@H](O)[C@H]2O[C@H]2C[C@](C)(N)[C@H](O)[C@H](C)O2)Oc2ccc(cc2Cl)[C@H]1O` [Vancomycin], the “Sensitivity of LB931 in words” value in experiment [2] is “resistant”. In addition, the MIC in experiment [2] (Lactiplantibacillus plantarum, LB931) was more than 256 µg/mL.
On to `CN(C)[C@@H]1C(=O)C(C(N)=O)=C(O)[C@@]2(O)C(=O)C3=C(O)c4c(O)cccc4[C@@](C)(O)[C@H]3C[C@@H]12` [Tetracyclin], for which the MIC in experiment [2] (E-test) is 2 µg/mL.
Consider `CC(=O)OCC1=C(C(=O)O)N2C(=O)[C@@H](NC(=O)Cc3cccs3)[C@H]2SC1` [Cefalotin], for which, in experiment [1], the Indication result is on record as “S” and the Zone was found to be 22 mm.
Turning to `CC[C@H]1OC(=O)[C@H](C)[C@@H](O[C@H]2C[C@@](C)(OC)[C@@H](O)[C@H](C)O2)[C@H](C)[C@@H](O[C@@H]2O[C@H](C)C[C@H](N(C)C)[C@H]2O)[C@](C)(O)C[C@@H](C)C(=O)[C@H](C)[C@@H](O)[C@]1(C)O` [Erythromycin], the MIC in experiment [2] (setting [4]) stood at 0.25 µg/mL.
With `O=C1CN(/N=C/c2ccc([N+](=O)[O-])o2)C(=O)N1` [Nitrofuantin], in experiment [1], the Indication entry is listed as “S” and the Zone came to 36 mm.
As to `C[C@@H](O)[C@H]1C(=O)N2C(C(=O)O)=C(SCCN=CN)C[C@H]12` [Imipenem], the MIC in experiment [2] (setting [4]) turned out to be 0.016 µg/mL.
On to `COc1cc(Cc2cnc(N)nc2N)cc(OC)c1OC` [Trimetoprim], for which the MIC in experiment [2] (E-test) was found to be 0.016 µg/mL.
As for `CC1(C)S[C@@H]2[C@H](NC(=O)[C@H](N)c3ccccc3)C(=O)N2[C@H]1C(=O)O` [Ampicillin], the MIC in experiment [2] (setting [4]) worked out at 0.19 µg/mL.
Same read-out and setting: the figure for `Cc1ncc([N+](=O)[O-])n1CCO` [Metronidazole] is more than 32 µg/mL; for `CO/N=C(\C(=O)N[C@@H]1C(=O)N2C(C(=O)O)=C(COC(N)=O)CS[C@H]12)c1ccco1` [Cefuroxime] it is 0.38 µg/mL.
On to `C[C@H]1[C@H](NC(=O)/C(=N\OC(C)(C)C(=O)O)c2csc(N)n2)C(=O)N1S(=O)(=O)O` [Aztreonam], for which, in experiment [1], the Indication entry is listed as “R” and the Zone is on record as 0 mm.
On to `CC1=C(C(=O)O)N2C(=O)[C@@H](NC(=O)[C@H](N)c3ccc(O)cc3)[C@H]2SC1` [Cefadroxil], for which, in experiment [1], the Indication result is reported as “S” and the Zone is listed as 24 mm.
As for `CO/N=C(\C(=O)N[C@@H]1C(=O)N2C(C(=O)O)=C(COC(C)=O)CS[C@H]12)c1csc(N)n1` [Cefotaxime], in experiment [2] (setting [4]), the MIC stood at 0.094 µg/mL.
In the case of `CC1(C)S[C@@H]2[C@H](/N=C/N3CCCCCC3)C(=O)N2[C@H]1C(=O)O` [Mecillinam], in experiment [1], the Indication entry is on record as “R” and the Zone was 0 mm.
Take `CC1(C)S[C@@H]2[C@H](NC(=O)Cc3ccccc3)C(=O)N2[C@H]1C(=O)O` [Benzylpenicillin]: the MIC in experiment [2] (setting [4]) was 0.5 µg/mL.
On to `Cc1onc(-c2ccccc2)c1C(=O)N[C@@H]1C(=O)N2[C@@H]1SC(C)(C)[C@@H]2C(=O)O` [Oxacillin], for which, in experiment [1], the Indication result is “R” and the Zone stood at 0 mm.
Regarding `CC(C)(O/N=C(\C(=O)N[C@@H]1C(=O)N2C(C(=O)[O-])=C(C[n+]3ccccc3)CS[C@H]12)c1csc(N)n1)C(=O)O` [Ceftazidime], in experiment [1], the Indication entry is reported as “S” and the Zone turned out to be 35 mm.
Consider Piperacin/Tazobactam, for which, in experiment [2] (E-test), the MIC is 2 µg/mL.
For the compound `CO/N=C(\C(=O)N[C@@H]1C(=O)N2C(C(=O)[O-])=C(C[n+]3cccc4c3CCC4)CS[C@H]12)c1csc(N)n1` [Cefipirome], in experiment [1], the Indication entry is on record as “S” and the Zone came out at 47 mm.
With `CCC[C@@H]1C[C@@H](C(=O)N[C@@H]([C@H]2O[C@H](SC)[C@H](O)[C@@H](O)[C@H]2O)[C@H](C)Cl)N(C)C1` [Clindamycin], in experiment [1], the Indication entry was “S” and the Zone is recorded as 35 mm.
For the compound Gentamycin, the MIC in experiment [2] (E-test) was found to be 0.25 µg/mL.
Turning to `CCN[C@@H]1C[C@H](N)[C@@H](O[C@H]2OC(CN)=CC[C@H]2N)[C@H](O)[C@H]1O[C@H]1OC[C@](C)(O)[C@H](NC)[C@H]1O` [Netilmycin], in experiment [1], the Indication entry is recorded as “R” and the Zone is reported as 0 mm.
Tergitol NP-9: the “Cfu/ml LB931” value is 2.5 × 10^9 Cfu/ml in experiment [3] (1% Tergitol NP-9 in MRS broth); 2.5 × 10^9 Cfu/ml in experiment [3] (5% Tergitol NP-9 in MRS broth); 1.6 × 10^9 Cfu/ml in experiment [3] (10% Tergitol NP-9 in MRS broth); 1.4 × 10^9 Cfu/ml in experiment [3] (20% Tergitol NP-9 in MRS broth); 1.0 × 10^9 Cfu/ml in experiment [3] (30% Tergitol NP-9 in MRS broth); 6.9 × 10^7 Cfu/ml in experiment [3] (40% Tergitol NP-9 in MRS broth). Moreover, the “Survival of LB931 in tergitol NP-9 in words” value in experiment [3] (up to 40% tergitol NP-9) is listed as “survive well”.
With Mecillinam/Ampicillin, in experiment [1], the Indication result is given as “S” and the Zone is on record as 41 mm.
Regarding `CCn1cc(C(=O)O)c(=O)c2ccc(C)nc21` [Nalidixin acid], in experiment [1], the “Sensitivity of LB931 in words” value is given as “resistant”, the Indication entry was “R” and the Zone is 0 mm.
For the compound Tri/sulfamethoazole, in experiment [1], the Indication result is on record as “S” and the Zone was 43 mm.
`CCn1cc(C(=O)O)c(=O)c2cc(F)c(N3CCNCC3)cc21` [Norfloxacin]: in experiment [1], the “Sensitivity of LB931 in words” value is “resistant”, the Indication result is recorded as “R” and the Zone is recorded as 0 mm.
As for `NC[C@H]1O[C@H](O[C@H]2[C@H](O)[C@@H](O[C@H]3O[C@H](CO)[C@@H](O)[C@H](N)[C@H]3O)[C@H](N)C[C@@H]2N)[C@H](N)C[C@@H]1O` [Tobramycin], in experiment [1], the Indication entry is listed as “S” and the Zone worked out at 32 mm.
